Laboratory results from patent US20060281768A1, “THIENOPYRIMIDINE AND THIENOPYRIDINE KINASE MODULATORS” (priority 2005, published 2006).

Tests used:
[1] = system: MV4-11 cells; assay: Growth inhibition of MV4-11 cells (CellTiterGlo); assay type: cell-based; conditions: Homo sapiens, 72 hours, uncertainty +20%
Experimental: FLT3 specific growth inhibition was measured in the leukemic cell line MV4-11 (ATCC Number: CRL-9591). […] MV4-11 cells cannot grow and survive without active FLT31TD.
To measure proliferation inhibition by test compounds the luciferase based CellTiterGlo reagent (Promega) was used. Cells are plated at 10,000 cells per well in 100ul of in RPMI media containing penn/strep, 10% FBS and lng/ml GM-CSF or 1 ng/ml IL-3 for MV4-11 and Baf3 cells respectively.
Compound dilutions or 0.1% DMSO (vehicle control) are added to cells and the cells are allowed to grow for 72 hours at standard cell growth conditions (37° C., 5% CO2). Total cell growth is quantified as the difference in luminescent counts (relative light units, RLU) of cell number at Day 0 compared to total cell number at Day 3 (72 hours of growth and/or compound treatment). One hundred percent inhibition of growth is defined as an RLU equivalent to the Day 0 reading. Zero percent inhibition is defined as the RLU signal for the DMSO vehicle control at Day 3 of growth. All data points are an average of triplicate samples. […] Inhibition and IC50 data analysis was done with GraphPad Prism using a non-linear regression fit with a multiparamater, sigmoidal dose-response (variable slope) equation.
MV-411 cells expressed the FLT3 internal tandem duplication mutation, and thus were entirely dependent upon FLT3 activity for growth. […] In contrast, the Baf3 cell proliferations is driven by the cytokine IL-3 and these cells are used as a non-specific toxicity control for test compounds.

[2] = target: T1, wild-type FLT3 receptor (Homo sapiens, UniProt P36888); assay: Cell-Based FLT3 Receptor Elisa (Baf3 FLT3 cells, FLT3 phosphorylation); conditions: Flt ligand stimulated FLT3 phosphorylation, 1 hour compound incubation, uncertainty +20%
T1 construct: host or cells: Baf3 (murine B cell lymphoma line)
T1 sequence (P36888 27-993): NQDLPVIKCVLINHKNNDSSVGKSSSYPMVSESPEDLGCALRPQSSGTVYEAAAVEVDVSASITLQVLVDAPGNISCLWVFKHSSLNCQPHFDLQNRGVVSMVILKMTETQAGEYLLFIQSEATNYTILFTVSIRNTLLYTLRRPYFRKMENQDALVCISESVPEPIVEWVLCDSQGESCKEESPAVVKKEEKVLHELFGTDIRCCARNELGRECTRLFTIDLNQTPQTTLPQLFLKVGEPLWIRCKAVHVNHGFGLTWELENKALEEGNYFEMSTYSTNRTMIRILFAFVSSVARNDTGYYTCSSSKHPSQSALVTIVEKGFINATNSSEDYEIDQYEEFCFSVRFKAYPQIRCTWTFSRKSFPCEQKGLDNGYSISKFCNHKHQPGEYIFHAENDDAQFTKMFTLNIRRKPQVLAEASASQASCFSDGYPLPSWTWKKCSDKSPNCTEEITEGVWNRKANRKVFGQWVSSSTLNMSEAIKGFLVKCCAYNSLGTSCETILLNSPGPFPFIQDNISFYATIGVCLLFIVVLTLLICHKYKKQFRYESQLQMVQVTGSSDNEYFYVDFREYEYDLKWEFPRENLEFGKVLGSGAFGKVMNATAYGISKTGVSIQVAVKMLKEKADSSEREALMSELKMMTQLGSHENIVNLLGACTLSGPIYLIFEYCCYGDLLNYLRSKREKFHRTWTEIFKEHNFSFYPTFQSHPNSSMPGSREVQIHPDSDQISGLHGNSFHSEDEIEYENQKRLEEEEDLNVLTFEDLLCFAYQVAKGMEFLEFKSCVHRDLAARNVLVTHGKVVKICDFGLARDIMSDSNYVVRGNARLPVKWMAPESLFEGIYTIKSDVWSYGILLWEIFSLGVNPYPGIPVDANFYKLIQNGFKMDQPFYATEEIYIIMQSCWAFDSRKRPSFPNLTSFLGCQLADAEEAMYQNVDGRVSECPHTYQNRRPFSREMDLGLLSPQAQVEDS
Experimental: Cells overexpressing the FLT3 receptor were obtained from Dr. Michael Heinrich (Oregon Health and Sciences University). The Baf3 FLT3 cell lines were created by stable transfection of parental Baf3 cells (a murine B cell lymphoma line dependent on the cytokine IL-3 for growth) with wild-type FLT3. Cells were selected for their ability to grow in the absence of IL-3 and in the presence of FLT3 ligand.
Baf3 cells were maintained in RPMI 1640 with 10%FCS, penn/strep and 10 ng/mL FLT ligand at 37° C., 5% CO2. To measure direct inhibition of the wild-type FLT3 receptor activity and phosphorylation a sandwich ELISA method was developed similar to those developed for other RTKs (3,4). 200ul of Baf3FLT3 cells (1×10^6/ml) were plated in 96 well dishes in RPM11640 with 0.5% serum and 0.01ng/ml IL-3 for 16 hours prior to 1 hour compound or DMSO vehicle incubation. Cells were treated with 100 ng/ml Flt ligand (R&D Systems Cat# 308-FK) for 10 min. at 37° C. Cells were pelleted, washed and lysed in 100ul HNTG buffer (50 mM Hepes, 150 mM NaCl, 10% Glycerol, 1% Triton -X-100, 10 mM NaF, 1 mM EDTA, 1.5 mM MgCl2, 10 mM NaPyrophosphate) supplemented with phosphatase (Sigma Cat# P2850) and protease inhibitors (Sigma Cat #P8340). Lysates were cleared by centrifugation at 1000×g for 5 minutes at 4° C. Cell lysates were transferred to white wall 96 well microtiter (Costar #9018) plates coated with 50ng/well anti-FLT3 antibody (Santa Cruz Cat# sc-480) and blocked with SeaBlock reagent (Pierce Cat#37527). Lysates were incubated at 4° C. for 2 hours. Plates were washed 3× with 200ul/well PBS/0.1% triton-X-100. Plates are then incubated with 1:8000 dilution of HRP-conjugated anti-phosphotyrosine antibody (Clone 4G10, Upstate Biotechnology Cat#16-105) for 1 hour at room temperature. Plates were washed 3× with 200ul/well PBS/0.1% triton-X-100. Signal detection with Super Signal Pico reagent (Pierce Cat#37070) was done according to manufacturer's instruction with a Berthold microplate luminometer. All data points are an average of triplicate samples. […] Inhibition and IC50 data analysis was done with GraphPad Prism using a non-linear regression fit with a multiparamater, sigmoidal dose-response (variable slope) equation.

[3] = target: T2, FLT3 571-993 (Homo sapiens, UniProt P36888); assay: FLT3 Fluorescence Polarization Kinase Assay; assay type: biochemical; conditions: 10 nM FLT3 571-993, 150 uM ATP, 30 minutes; uncertainty +10%
T2 construct: 10 nM FLT3 571-993, 20 ug/mL poly Glu4Tyr
T2 sequence (P36888 571-993): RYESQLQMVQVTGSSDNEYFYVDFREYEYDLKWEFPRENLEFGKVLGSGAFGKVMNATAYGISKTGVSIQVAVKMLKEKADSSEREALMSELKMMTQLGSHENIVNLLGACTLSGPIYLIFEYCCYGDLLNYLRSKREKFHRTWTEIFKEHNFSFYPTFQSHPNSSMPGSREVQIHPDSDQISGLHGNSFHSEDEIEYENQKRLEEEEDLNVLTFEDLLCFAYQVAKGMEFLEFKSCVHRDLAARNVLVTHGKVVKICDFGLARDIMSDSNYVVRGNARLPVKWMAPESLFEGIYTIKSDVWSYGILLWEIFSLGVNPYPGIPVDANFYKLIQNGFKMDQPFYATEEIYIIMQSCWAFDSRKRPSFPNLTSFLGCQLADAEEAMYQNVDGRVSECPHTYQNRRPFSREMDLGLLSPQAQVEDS
Experimental: The FLT3 FP assay utilizes the fluorescein-labeled phosphopeptide and the anti-phosphotyrosine antibody included in the Panvera Phospho-Tyrosine Kinase Kit (Green) supplied by Invitrogen. When FLT3 phosphorylates poly Glu4Tyr, the fluorescein-labeled phosphopeptide is displaced from the anti-phosphotyrosine antibody by the phosphorylated poly Glu4Tyr, thus decreasing the FP value. The FLT3 kinase reaction is incubated at room temperature for 30 minutes under the following conditions: 10 nM FLT3 571-993, 20 ug/mL poly Glu4Tyr, 150 uM ATP, 5mM MgCl2, 1% compound in DMSO. The kinase reaction is stopped with the addition of EDTA. The fluorescein-labeled phosphopeptide and the anti-phosphotyrosine antibody are added and incubated for 30 minutes at room temperature.
All data points are an average of triplicate samples. Inhibition and IC50 data analysis was done with GraphPad Prism using a non-linear regression fit with a multiparamater, sigmoidal dose-response (variable slope) equation.

CC(C)c1ccc(NC(=O)OC2CCN(c3ncnc4ccsc34)C2)cc1 (stereo not drawn) [Compound 5, (4-Isopropyl-phenyl)-carbamic acid 1-thieno [3,2-d]pyrimidin-4-yl-pyrrolidin-3-yl ester]
IC50 [1]: 1300 nM | IC50 [2]: 22 nM | IC50 [3]: 64 nM

CC(C)c1ccc(NC(=O)NC2CCN(c3ncnc4sccc34)C2)cc1 (stereo not drawn) [Compound 9, 1-(4-Isopropyl-phenyl)-3-(1-thieno [2,3-d]pyrimidin-4-yl-pyrrolidin-3-yl)-urea]
IC50 [1]: 1300 nM | IC50 [2]: 55 nM | IC50 [3]: 41 nM

CC(C)c1ccc(NC(=O)NC2CCN(c3ncnc4ccsc34)C2)cc1 (stereo not drawn) [Compound 11, 1-(4-Isopropyl-phenyl)-3-(1-thieno [3,2-d]pyrimidin-4-yl-pyrrolidin-3-yl)-urea]
IC50 [1]: 671 nM | IC50 [2]: 108 nM | IC50 [3]: 77 nM

O=C(Nc1ccc(Oc2ccccc2)cc1)NC1CCN(c2ncnc3ccsc23)C1 (stereo not drawn) [Compound 13, 1-(4-Phenoxy-phenyl)-3-(1-thieno [3,2-d]pyrimidin-4-yl-pyrrolidin-3-yl)-urea]
IC50 [1]: 881 nM | IC50 [2]: > 5000 nM

O=C(Nc1ccc(OC2CCC2)nc1)NC1CCN(c2ncnc3ccsc23)C1 (stereo not drawn) [Compound 15, 1-(6-Cyclobutoxy-pyridin-3-yl)-3-(1-thieno [3,2-d]pyrimidin-4-yl-pyrrolidin-3-yl)-urea]
IC50 [1]: 983 nM | IC50 [2]: 1900 nM

CCN(CC)c1ccc(NC(=O)NC2CCN(c3ncnc4ccsc34)C2)cc1 (stereo not drawn) [Compound 18, 1-(4-Diethylamino-phenyl)-3-(1-thieno [3,2-d]pyrimidin-4-yl-pyrrolidin-3-yl)-urea]
IC50 [1]: 757 nM | IC50 [2]: 895 nM

O=C(Nc1ccc(N2CCCC2)cc1)NC1CCN(c2ncnc3ccsc23)C1 (stereo not drawn) [Compound 19, 1-(4-Pyrrolidin-1-yl-phenyl)-3-(1-thieno [3,2-d]pyrimidin-4-yl-pyrrolidin-3-yl)-urea]
IC50 [1]: 850 nM | IC50 [2]: 2900 nM

O=C(Nc1ccc(OC2CCC2)nc1)OC1CCN(c2ncnc3ccsc23)C1 (stereo not drawn) [Compound 25, (6-Cyclobutoxy-pyridin-3-yl)-carbamic acid 1-thieno[3,2-d]pyrimidin-4-yl-pyrrolidin-3-yl ester]
IC50 [1]: 345 nM | IC50 [2]: 1600 nM

O=C(Nc1ccc(Oc2ccccc2)cc1)OC1CCN(c2ncnc3ccsc23)C1 (stereo not drawn) [Compound 26, (4-Phenoxy-phenyl)-carbamic acid 1-thieno[3,2-d]pyrimidin-4-yl-pyrrolidin-3-yl ester]
IC50 [1]: 953 nM | IC50 [2]: 390 nM
